This note sets out measurements from US10273248B2, “Glucose uptake inhibitors” (Kadmon Corporation LLC, priority 2015, dated 2019).

This assay relates to glycolysis in HT1080 cells. The assay is described as follows: Glycolysis assay: oligomycin plus compound, cellular ATP by Cell Titer Glo. The format is cell-based. To be noted: Homo sapiens, HT-1080, 1 h, 10 μM oligomycin, one hour, class symbols. Put shortly: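 Confluent HT1080 cells treated 1 h with compound plus 10 μM oligomycin to block mitochondrial ATP, so remaining ATP reflects glycolysis. Cellular ATP read by Cell Titer-Glo luminescence; IC50 derived from dose-response curves.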
Background: In ATP-based viability assays light output follows the ATP content of the culture.
In general, IC50 refers to the concentration that gives 50% inhibition. Take `Cc1ccc(CNc2cccc(-c3nc4c(c(Nc5ccc(-c6cn[nH]c6)cc5)n3)COC4)c2)cn1` [Example 91, N-(4-(1H-pyrazol-4-yl)phenyl)-2-(3-(((6-methylpyridin-3-yl)methyl)amino)phenyl)-5,7-dihydrofuro[3,4-d]pyrimidin-4-amine]: the IC50 was over 1000 nM.

Take `Fc1cncc(CNc2cccc(-c3nc4c(c(Nc5ccc(-c6cn[nH]c6)cc5)n3)COC4)c2)c1` [Example 92, N-(4-(1H-pyrazol-4-yl)phenyl)-2-(3-(((5-fluoropyridin-3-yl)methyl)amino)phenyl)-5,7-dihydrofuro[3,4-d]pyrimidin-4-amine]: the IC50 is 501 to 1000 nM.

For the compound `Clc1cncc(CNc2cccc(-c3nc4c(c(Nc5ccc(-c6cn[nH]c6)cc5)n3)COC4)c2)c1` [Example 93, N-(4-(1H-pyrazol-4-yl)phenyl)-2-(3-(((5-chloropyridin-3-yl)methyl)amino)phenyl)-5,7-dihydrofuro[3,4-d]pyrimidin-4-amine], the IC50 was 501 to 1000 nM.

For the compound `Cc1cncc(CNc2cccc(-c3nc4c(c(Nc5ccc(-c6cn[nH]c6)cc5)n3)COC4)c2)c1` [Example 94, N-(4-(1H-pyrazol-4-yl)phenyl)-2-(3-(((5-methylpyridin-3-yl)methyl)amino)phenyl)-5,7-dihydrofuro[3,4-d]pyrimidin-4-amine], the IC50 lay within 501 to 1000 nM.

As to `CC(C)NC(=O)COc1cc(-c2nc3c(c(Nc4ccc(-c5cn[nH]c5)cc4)n2)COC3)ccc1F` [Example 95, 2-(5-(4-((4-(1H-pyrazol-4-yl)phenyl)amino)-5,7-dihydrofuro[3,4-d]pyrimidin-2-yl)-2-fluorophenoxy)-N-isopropylacetamide], the IC50 is over 1000 nM.

As to `CC(C)(C)NC(=O)COc1cc(-c2nc3c(c(Nc4ccc(-c5cn[nH]c5)cc4)n2)COC3)ccc1F` [Example 96, 2-(5-(4-((4-(1H-pyrazol-4-yl)phenyl)amino)-5,7-dihydrofuro[3,4-d]pyrimidin-2-yl)-2-fluorophenoxy)-N-(tert-butyl)acetamide], the IC50 was over 1000 nM.

Regarding `CCC(CC)NC(=O)COc1cc(-c2nc3c(c(Nc4ccc(-c5cn[nH]c5)cc4)n2)COC3)ccc1F` [Example 97, 2-(5-(4-((4-(1H-pyrazol-4-yl)phenyl)amino)-5,7-dihydrofuro[3,4-d]pyrimidin-2-yl)-2-fluorophenoxy)-N-(pentan-3-yl)acetamide], the IC50 was over 1000 nM.

Consider `CC(C)NC(=O)COc1cccc(-c2nc3c(c(Nc4ccc(-c5cn[nH]c5)cc4)n2)COCC3)c1` [Example 102, 2-(3-(4-((4-(1H-pyrazol-4-yl)phenyl)amino)-7,8-dihydro-5H-pyrano[4,3-d]pyrimidin-2-yl)phenoxy)-N-isopropylacetamide], for which the IC50 lay within 10 to 100 nM.

For the compound `CCC(C)NC(=O)COc1cccc(-c2nc3c(c(Nc4ccc(-c5cn[nH]c5)cc4)n2)COCC3)c1` (stereo not drawn) [Example 103, 2-(3-(4-((4-(1H-pyrazol-4-yl)phenyl)amino)-7,8-dihydro-5H-pyrano[4,3-d]pyrimidin-2-yl)phenoxy)-N-(sec-butyl)acetamide], the IC50 was 10 to 100 nM.

As to `CC(C)CNC(=O)COc1cccc(-c2nc3c(c(Nc4ccc(-c5cn[nH]c5)cc4)n2)COCC3)c1` [Example 104, 2-(3-(4-((4-(1H-pyrazol-4-yl)phenyl)amino)-7,8-dihydro-5H-pyrano[4,3-d]pyrimidin-2-yl)phenoxy)-N-isobutylacetamide], the IC50 lay within 10 to 100 nM.

On to `CC(C)(C)CNC(=O)COc1cccc(-c2nc3c(c(Nc4ccc(-c5cn[nH]c5)cc4)n2)COCC3)c1` [Example 105, 2-(3-(4-((4-(1H-pyrazol-4-yl)phenyl)amino)-7,8-dihydro-5H-pyrano[4,3-d]pyrimidin-2-yl)phenoxy)-N-neopentylacetamide], for which the IC50 lay within 10 to 100 nM.

For the compound `O=C(COc1cccc(-c2nc3c(c(Nc4ccc(-c5cn[nH]c5)cc4)n2)COCC3)c1)NC1CCCC1` [Example 108, 2-(3-(4-((4-(1H-pyrazol-4-yl)phenyl)amino)-7,8-dihydro-5H-pyrano[4,3-d]pyrimidin-2-yl)phenoxy)-N-cyclopentylacetamide], the IC50 fell in the range of 10 to 100 nM.
